# Data: patent US4705900A, “Insecticidal alkenes” (Imperial Chemical Industries PLC, priority 1985, dated 1987)
# Columns and labels:
# Musca domestica [1] = test: mortality of houseflies (MD), contact test; format: in vivo, Musca domestica (houseflies - adults); conditions: cotton wool/sugar, 1 day
# Description: (§1) The activity of the Product was determined using a variety of insect pests. The Product was used in the form of liquid preparations containing 500 or 100 parts per million (ppm) by weight of the Product. The preparations were made by dissolving the Product in acetone and diluting the solutions with water containing 0.01% by weight of a wetting agent sold under the trade name "LISSAPOL" NX until the liquid preparations contained the required concentration of the Product. "Lissapol" is a Registered Trade Mark.
# (§2) The test procedure adopted with regard to each pest was basically the same and comprised supporting a number of the pests on a medium which was usually a host plant or a foodstuff on which the pests feed, and treating either or both the pests and the medium with the preparations. The mortality of the pests was then assessed at periods usually varying from one to three days after the treatment.
# (§3) The results of the tests are given in Table IV for each of the Products, at the rate in parts per million given in the second column as a grading of mortality designated as A, B or C wherein A indicates 80-100% mortality or knockdown, B indicates 50-79% mortality or knockdown and C indicates less than 50% mortality or knockdown.
# (§4) In Table IV the pest organism used is designated by a letter code and the pests species, the support medium or food, and the type and duration of test is given in Table III.
# Diabrotica balteata = test: mortality of rootworm larvae (DB), residual test; format: in vivo, Diabrotica balteata (rootworm larvae); conditions: filter paper/maize seed, 3 days; for mortality at 500 ppm / grading of mortality, DB: 500 ppm; for grading of mortality, DB: 4320 min
# Description: as §1, §2, §3, §4
# Nilaparvata lugens = test: mortality of green leaf hopper (NL), contact test; format: in vivo, Nilaparvata lugens (brown planthopper); conditions: cabbage leaf, 6 days; for mortality at 500 ppm / grading of mortality, NL: 500 ppm; for grading of mortality, NL: 8640 min
# Description: as §1, §2, §3, §4
# Tetranychus urticae = test: mortality of red spider mites (TU), contact test; format: in vivo, Tetranychus urticae (red spider mites - adult); conditions: French bean leaf, 3 days
# Description: as §1, §2, §3, §4
# (red spider mites - adult)
# Chilo partellurs = test: mortality of stem borers (CP), residual test; format: in vivo, Chilo partellurs (Stem borers); conditions: oil seed rape leaf, 3 days
# Description: as §1, §2, §3, §4
# Myzus persicae = test: mortality of aphids (MP), contact test; format: in vivo, Myzus persicae (aphids); conditions: leaf, 2 days; for mortality at 500 ppm / grading of mortality, MP: 500 ppm; for grading of mortality, MP: 2880 min
# Description: as §1, §2, §3, §4
# Musca domestica [2] = test: knockdown of houseflies (MD/KD); format: in vivo, Musca domestica (houseflies - adults); conditions: cotton wool/sugar, 4 hours
# Description: as §1, §2
# In case of the species Musca domestica (housefly), additional tests to determine the knockdown effect of the compounds were performed.
# as §3, §4
# Heliothis viriscens = test: whole plant or invertebrate; format: in vivo, Heliothis viriscens (tobacco budworm); conditions: in Gossypium hirsutum, 72 h, read-out: grading of mortality, HV
# Description: as §1, §2, §3, §4
# Blattella germanica = test: mortality of cockroach nymphs (BG), residual test; format: in vivo, Blattella germanica (cockroach nymphs); conditions: plastic pot, 3 days
# Description: as §1, §2, §3, §4
# [3] = Musca domestica, 24 h, 500 ppm, read-out: grading of mortality, MD
# [4] = Diabrotica balteata, in Zea mays, 72 h, read-out: grading of mortality, DB
# [5] = Nilaparvata lugens, in Brassica oleracea, 144 h, read-out: grading of mortality, NL
# [6] = Tetranychus urticae, 72 h, 500 ppm, read-out: grading of mortality, TU
# [7] = Chilo, 72 h, 500 ppm, read-out: grading of mortality, CP
# [8] = Myzus persicae, 48 h, read-out: grading of mortality, MP
# [9] = Musca domestica, 500 ppm, read-out: grading of knockdown, MD/KD
# [10] = Blattella germanica, 72 h, 500 ppm, read-out: grading of mortality, BG
SMILES,mortality at 500 ppm (Musca domestica [1]; [3]),mortality at 500 ppm (Diabrotica balteata; [4]),mortality at 500 ppm (Nilaparvata lugens; [5]),mortality at 500 ppm (Tetranychus urticae; [6]),mortality at 500 ppm (Chilo partellurs; [7]),mortality at 500 ppm (Myzus persicae; [8]),pest or weed control at 500 ppm (Musca domestica [2]; [9]),mortality at 500 ppm (Heliothis viriscens),mortality at 500 ppm (Blattella germanica; [10]),other results
"CC(C)(C=Cc1cccc(F)c1)COCc1cccc(Oc2ccccc2)c1 [Compound 17, 3,3-Dimethyl-1-(3-fluorophenyl)-4-(3-phenoxybenzyloxy)but-1-ene]",< 50%,< 50%,< 50%,< 50%,80 to 100%,< 50%,< 50%,80 to 100%,< 50%,–
"CC(C)(/C=C\c1ccc(F)cc1)COCc1ccc(F)c(Oc2ccccc2)c1 [Compound 5, 3,3-dimethyl-1-(4-fluorophenyl)-4-(4-fluoro-3-phenoxybenzyloxy)but-1-ene]",< 50%,< 50%,< 50%,< 50%,< 50%,< 50%,< 50%,< 50%,< 50%,–
"CC(C)(C=Cc1ccc(Cl)cc1)COCc1cccc(Oc2ccccc2)c1 [Compound 1, 3,3-Dimethyl-1-(4-chlorophenyl)-4-(3-phenoxybenzyloxy)but-1-ene]",50 to 79%,–,–,50 to 79%,80 to 100%,–,80 to 100%,80 to 100%,< 50%,"grading of mortality, DB (Diabrotica balteata): C (C indicates less than 50% mortality or knockdown); grading of mortality, NL (Nilaparvata lugens): B (B indicates 50-79% mortality or knockdown); grading of mortality, MP (Myzus persicae): C (C indicates less than 50% mortality or knockdown)"
"CC(C)(C=Cc1cc(Cl)cc(Cl)c1)COCc1cccc(Oc2ccccc2)c1 [Compound 15, 3,3-Dimethyl-1-(3,5-dichlorophenyl)-4-(3-phenoxybenzyloxy)but-1-ene]",< 50%,< 50%,< 50%,< 50%,80 to 100%,< 50%,< 50%,< 50%,< 50%,–
"CCOc1ccc(/C=C/C(C)(C)COCc2cccc(Oc3ccccc3)c2)cc1 [Compound 4, 3,3-Dimethyl-1-(4-ethoxyphenyl)-4-(3-phenoxybenzyloxy)but-1-ene]",< 50%,< 50%,< 50%,< 50%,< 50%,< 50%,< 50%,< 50%,< 50%,–
"CC(C)(C=Cc1ccc(F)c(F)c1)COCc1cccc(Oc2ccccc2)c1 [Compound 18, 3,3-Dimethyl-1-(3,4-difluorophenyl)-4-(3-phenoxybenzyloxy)but-1-ene]",< 50%,< 50%,< 50%,50 to 79%,80 to 100%,< 50%,< 50%,80 to 100%,< 50%,–
"COc1ccc(/C=C/C(C)(C)COCc2ccc(F)c(Oc3ccccc3)c2)cc1 [Compound 24, 3,3-dimethyl-1-(4-methoxyphenyl)-4-(4-fluoro-3-phenoxybenzyloxy)but-1-ene]",80 to 100%,< 50%,80 to 100%,50 to 79%,80 to 100%,50 to 79%,80 to 100%,50 to 79%,< 50%,–
"CCOc1ccc(/C=C\C(C)(C)COCc2cccc(Oc3ccccc3)c2)cc1 [Compound 3, 3,3-Dimethyl-1-(4-ethoxyphenyl)-4-(3-phenoxybenzyloxy)but-1-ene]",< 50%,< 50%,< 50%,< 50%,< 50%,< 50%,< 50%,< 50%,< 50%,–
"CC(C)(/C=C/c1ccc(F)cc1)COCc1ccc(F)c(Oc2ccccc2)c1 [Compound 6, 3,3-dimethyl-1-(4-fluorophenyl)-4-(4-fluoro-3-phenoxybenzyloxy)but-1-ene]",80 to 100%,80 to 100%,80 to 100%,50 to 79%,80 to 100%,80 to 100%,80 to 100%,80 to 100%,80 to 100%,–
"CC(C)(/C=C\c1ccccc1)COCc1ccc(F)c(Oc2ccccc2)c1 [Compound 21, 3,3-Dimethyl-1-phenyl-4-(4-fluoro-3-phenoxybenzyloxy)but-1-ene]",–,–,–,–,–,–,–,–,–,"mortality at 100 ppm (Musca domestica [1]; Musca domestica, 24 h, 100 ppm, read-out: grading of mortality, MD): < 50%; mortality at 100 ppm (Diabrotica balteata; Diabrotica balteata, in Zea mays, 72 h, 100 ppm, read-out: grading of mortality, DB): < 50%; mortality at 100 ppm (Nilaparvata lugens; Nilaparvata lugens, in Brassica oleracea, 144 h, 100 ppm, read-out: grading of mortality, NL): < 50%; mortality at 100 ppm (Tetranychus urticae; Tetranychus urticae, 72 h, 100 ppm, read-out: grading of mortality, TU): < 50%; mortality at 100 ppm (Chilo partellurs; Chilo, 72 h, 100 ppm, read-out: grading of mortality, CP): 80 to 100%; mortality at 100 ppm (Myzus persicae; Myzus persicae, 48 h, 100 ppm, read-out: grading of mortality, MP): < 50%; pest or weed control at 100 ppm (Musca domestica [2]; Musca domestica, 100 ppm, read-out: grading of knockdown, MD/KD): < 50%; mortality at 100 ppm (Heliothis viriscens): < 50%; mortality at 100 ppm (Blattella germanica; Blattella germanica, 72 h, 100 ppm, read-out: grading of mortality, BG): < 50%"
"CC(C)(CCc1ccc(Cl)cc1)COCc1cccc(Oc2ccccc2)c1 [Compound 34, 3,3-dimethyl-1-(4-chlorophenyl)-4-(3-phenoxybenzyloxy)butane]",< 50%,< 50%,< 50%,50 to 79%,80 to 100%,< 50%,< 50%,80 to 100%,< 50%,–
"Clc1ccc(/C=C\C2(COCc3cccc(Oc4ccccc4)c3)CC2)cc1 [Compound 23, 1-[2-(4-chlorophenyl)ethen-1-yl]-1-(3-phenoxybenzyloxymethyl)cyclopropane]",< 50%,< 50%,80 to 100%,< 50%,80 to 100%,< 50%,< 50%,< 50%,< 50%,–
"CCC(C)(/C=C/c1ccc(Cl)cc1)COCc1cccc(Oc2ccccc2)c1 (stereo not shown) [Compound 25, 3-Ethyl-3-methyl-1-(4-chlorophenyl)-4-(3-phenoxybenzyloxy)but-1-ene]",50 to 79%,< 50%,50 to 79%,< 50%,–,50 to 79%,< 50%,80 to 100%,80 to 100%,–
"CC(C)(C=Cc1ccc(Cl)cc1)COCc1cccc(Oc2ccccc2)c1 [Compound 13, 3,3-Dimethyl-1-(4-chlorophenyl)-4-(3-phenoxybenzyloxy)but-1-ene]",–,–,–,–,–,–,–,–,–,"grading of mortality, MD (Musca domestica [1]; 500 ppm): B (B indicates 50-79% mortality or knockdown); grading of mortality, DB (Diabrotica balteata): A (A indicates 80-100% mortality or knockdown); grading of mortality, NL (Nilaparvata lugens): A (A indicates 80-100% mortality or knockdown); grading of mortality, TU (Tetranychus urticae; 500 ppm): B (B indicates 50-79% mortality or knockdown); grading of mortality, CP (Chilo partellurs; 500 ppm): A (A indicates 80-100% mortality or knockdown); grading of mortality, MP (Myzus persicae): A (A indicates 80-100% mortality or knockdown); grading of knockdown, MD/KD (Musca domestica [2]; 500 ppm): A (A indicates 80-100% mortality or knockdown); grading of mortality, BG (Blattella germanica; 500 ppm): C (C indicates less than 50% mortality or knockdown)"
